# Measured values published in PMC12919657 (Results in chemistry, 2025).
# Assay: pKa determination
# Format: physicochemical
# Conditions: methanol / 1 N HCl solution
structure (smiles),measurement,value
O=C(CCCN1CCC(O)(c2ccc(Cl)cc2)CC1)c1ccc(F)cc1 [Haloperidol],pKa,8.22 ± 0.09
